# Experimental data published in ChEMBL document CHEMBL4706771, “Discovery of Orally Bioavailable Ligand Efficient Quinazolindiones as Potent and Selective Tankyrases Inhibitors” (ACS Med Chem Lett, 2021).
# Active and inactive are the calls of the source. The rule behind the calls is not given here.
# Tests used:
# [1] = Toxicity in Wistar Han rat assessed as decrease in skin elasticity at >= 100 mg/kg, po administered for 7 days and measured on day 7; format: organism-based; details: in vivo, 168 h, time 7 day
# [2] = Toxicity in Wistar Han rat assessed as abnormal watery fecal consistency at >= 100 mg/kg, po administered for 7 days and measured on day 7; format: organism-based; details: in vivo, 168 h, time 7 day
# [3] = Mutagenicity in Escherichia coli WP2uvrA in presence of S9 fraction by ames test; format: toxicity, subcellular
# Cytochrome P450 1A2 = target: T1, Cytochrome P450 1A2 (Homo sapiens, UniProt P05177); test: Inhibition of CYP1A2 (unknown origin); format: ADME
# T1 sequence (P05177 whole entry): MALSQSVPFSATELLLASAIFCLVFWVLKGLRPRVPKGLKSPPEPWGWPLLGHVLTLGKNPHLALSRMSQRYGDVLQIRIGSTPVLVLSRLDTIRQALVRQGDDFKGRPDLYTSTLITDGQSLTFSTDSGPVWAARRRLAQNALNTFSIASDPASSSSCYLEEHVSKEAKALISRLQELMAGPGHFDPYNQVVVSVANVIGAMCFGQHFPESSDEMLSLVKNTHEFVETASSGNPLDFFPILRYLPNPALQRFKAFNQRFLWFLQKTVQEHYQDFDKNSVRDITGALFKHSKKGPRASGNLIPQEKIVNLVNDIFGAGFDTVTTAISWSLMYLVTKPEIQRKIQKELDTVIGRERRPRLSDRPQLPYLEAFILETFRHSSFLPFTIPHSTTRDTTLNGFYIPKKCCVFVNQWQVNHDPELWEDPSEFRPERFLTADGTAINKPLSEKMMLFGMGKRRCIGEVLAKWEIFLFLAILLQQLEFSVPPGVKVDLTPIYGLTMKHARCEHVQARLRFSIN
# Cytochrome P450 2D6 = Cytochrome P450 2D6 (Homo sapiens, UniProt P10635); test: Inhibition of CYP2D6 (unknown origin); format: ADME
# [4] = Mutagenicity in Escherichia coli WP2uvrA by ames test; format: toxicity
# [5] = Oral bioavailability in Sprague-Dawley rat at 8.6 mg/kg; format: ADME, organism-based; details: in vivo
# [6] = Clearance in C57 mouse at 3 mg/kg, po or 1 mg/kg, iv; format: ADME, organism-based; details: in vivo
# [7] = Mutagenicity in Salmonella typhimurium TA1535 by ames test; format: toxicity; details: salmonella enterica subsp. enterica serovar typhimurium
# [8] = Toxicity in Wistar Han rat assessed as abnormal soft fecal consistency at >= 100 mg/kg, po administered for 7 days and measured on day 7; format: organism-based; details: in vivo, 168 h, time 7 day
# [9] = Toxicity in Wistar Han rat assessed as abnormal mucoid fecal consistency at >= 100 mg/kg, po administered for 7 days and measured on day 7; format: organism-based; details: in vivo, 168 h, time 7 day
# [10] = Toxicity in Wistar Han rat assessed as irregular breathing at >= 100 mg/kg, po administered for 7 days and measured on day 7; format: organism-based; details: in vivo, 168 h, time 7 day
# [11] = Clearance in Sprague-Dawley rat at 8.6 mg/kg, po or 0.5 mg/kg, iv; format: ADME, organism-based; details: in vivo
# [12] = Mutagenicity in Salmonella typhimurium TA98 by ames test; format: toxicity; details: salmonella enterica subsp. enterica serovar typhimurium
# Cytochrome P450 2C19 = Cytochrome P450 2C19 (Homo sapiens, UniProt P33261); test: Inhibition of CYP2C19 (unknown origin); format: ADME
# NCI-H292 [13] = test: Antitumor activity against human NCI-H292 cells xenografted in BALB/c mouse assessed as maximal potency administered orally for 14 days and measured on day 14; format: functional; details: time 14 day
# NCI-H292 [14] = test: Antitumor activity against human NCI-H292 cells xenografted in BALB/c mouse assessed as reduction in tumor growth at 3 mg/kg, po administered for 14 days and measured on day 14; format: functional, organism-based; details: time 14.0 day
# [15] = Toxicity in Wistar Han rat assessed as closed eyes at >= 100 mg/kg, po administered for 7 days and measured on day 7; format: organism-based; details: in vivo, 168 h, time 7 day
# [16] = Half life in C57 mouse at 3 mg/kg, po or 1 mg/kg, iv; format: ADME, organism-based; details: in vivo
# [17] = Dose normalised AUC in C57 mouse at 3 mg/kg, po; format: ADME, organism-based; details: in vivo
# [18] = Toxicity in Wistar Han rat assessed as decrease in activity at >= 100 mg/kg, po administered for 7 days and measured on day 7; format: organism-based; details: in vivo, 168 h, time 7 day
# Cytochrome P450 2C9 = Cytochrome P450 2C9 (Homo sapiens, UniProt P11712); test: Inhibition of CYP2C9 (unknown origin); format: ADME
# [19] = Toxicity in Wistar Han rat assessed as tolerability at 10 mg/kg, po administered for 7 days and measured on day 7; format: organism-based; details: in vivo, 168 h, time 7 day
# [20] = Toxicity in BALB/c mouse xenografted with human NCI-H292 cells assessed as tolerability at 10 to 30 mg/kg, po for 14 days and measured on day 14; format: organism-based; details: in vivo, 336 h, dose 10-30 mg/kg, time 14 day
# [21] = Dose normalised AUC in Sprague-Dawley rat at 8.6 mg/kg, po; format: ADME, organism-based; details: in vivo
# [22] = Toxicity in Wistar Han rat assessed as reduction in body weight at 10 mg/kg, po administered for 7 days and measured on day 7; format: organism-based; design: scale not given: the % may be the effect or the level left; details: in vivo, 168 h, time 7 day
# NCI-H292 [23] = test: Antitumor activity against human NCI-H292 cells xenografted in BALB/c mouse assessed as reduction in tumor volume at 10 to 30 mg/kg, po administered for 14 days and measured on day 14; format: functional, organism-based; details: dose 10-30 mg/kg, time 14.0 day
# [24] = Inhibition of Wnt/beta-catenin (unknown origin) expressed in human HEK293 cells expressing MSRII transfected with DNA-LF2K incubated for 24 hrs by luciferase reporter gene assay; details: HEK293, 24 h
# [25] = Mutagenicity in Salmonella typhimurium TA1537 by ames test; format: toxicity; details: salmonella enterica subsp. enterica serovar typhimurium
# [26] = Toxicity in Wistar Han rat assessed as tolerability at >= 100 mg/kg, po administered for 7 days and measured on day 7; format: organism-based; details: in vivo, 168 h, time 7 day
# [27] = Volume of distribution in Beagle dog at 2 mg/kg, po or 1 mg/kg, iv; format: ADME, organism-based, Canis lupus familiaris; details: in vivo
# Cytochrome P450 3A4 = Cytochrome P450 3A4 (Homo sapiens, UniProt P08684); test: Inhibition of CYP3A4 (unknown origin); format: ADME
# Chain of Cytochrome P450 3A4 (P08684 whole entry): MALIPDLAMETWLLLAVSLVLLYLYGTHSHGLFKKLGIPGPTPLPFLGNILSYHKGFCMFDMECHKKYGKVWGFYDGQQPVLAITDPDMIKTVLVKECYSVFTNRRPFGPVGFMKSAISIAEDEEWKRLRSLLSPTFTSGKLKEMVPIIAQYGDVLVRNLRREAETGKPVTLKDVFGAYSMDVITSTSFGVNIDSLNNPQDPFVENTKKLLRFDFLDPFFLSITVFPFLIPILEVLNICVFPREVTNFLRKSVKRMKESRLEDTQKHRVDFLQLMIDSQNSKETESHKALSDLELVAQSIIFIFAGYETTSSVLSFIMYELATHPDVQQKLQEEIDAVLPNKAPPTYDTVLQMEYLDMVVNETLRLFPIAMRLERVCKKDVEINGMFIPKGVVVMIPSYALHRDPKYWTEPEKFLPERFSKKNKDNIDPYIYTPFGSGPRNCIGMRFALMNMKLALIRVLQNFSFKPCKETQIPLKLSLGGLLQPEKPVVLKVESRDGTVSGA
# Chain of Cytochrome P450 2C9 (P11712 whole entry): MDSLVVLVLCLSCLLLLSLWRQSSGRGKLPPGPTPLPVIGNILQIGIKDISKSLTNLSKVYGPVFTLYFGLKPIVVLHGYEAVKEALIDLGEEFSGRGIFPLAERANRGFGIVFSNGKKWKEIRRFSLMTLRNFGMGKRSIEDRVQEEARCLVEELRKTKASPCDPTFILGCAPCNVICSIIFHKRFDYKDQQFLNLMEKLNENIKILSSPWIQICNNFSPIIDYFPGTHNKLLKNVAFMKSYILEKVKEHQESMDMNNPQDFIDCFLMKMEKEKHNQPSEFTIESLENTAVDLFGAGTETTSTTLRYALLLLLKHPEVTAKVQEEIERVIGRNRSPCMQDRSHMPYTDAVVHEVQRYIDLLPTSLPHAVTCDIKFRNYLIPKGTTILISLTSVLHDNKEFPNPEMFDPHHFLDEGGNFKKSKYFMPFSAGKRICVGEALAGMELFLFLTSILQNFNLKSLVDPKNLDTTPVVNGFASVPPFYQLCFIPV
# Chain of Cytochrome P450 2D6 (P10635 whole entry): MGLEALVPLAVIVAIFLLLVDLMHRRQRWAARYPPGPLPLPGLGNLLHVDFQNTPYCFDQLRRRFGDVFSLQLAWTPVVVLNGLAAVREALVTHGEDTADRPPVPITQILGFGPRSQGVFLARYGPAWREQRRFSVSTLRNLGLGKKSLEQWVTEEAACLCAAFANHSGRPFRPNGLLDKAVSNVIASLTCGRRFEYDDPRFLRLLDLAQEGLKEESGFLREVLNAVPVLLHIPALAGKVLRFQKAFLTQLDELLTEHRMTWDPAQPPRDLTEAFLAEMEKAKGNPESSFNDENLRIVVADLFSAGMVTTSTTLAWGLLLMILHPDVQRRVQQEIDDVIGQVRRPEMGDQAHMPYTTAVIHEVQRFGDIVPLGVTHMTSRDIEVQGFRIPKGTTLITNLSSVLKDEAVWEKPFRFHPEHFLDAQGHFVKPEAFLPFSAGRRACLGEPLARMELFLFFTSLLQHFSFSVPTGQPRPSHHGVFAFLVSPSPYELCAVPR
# Chain of Cytochrome P450 2C19 (P33261 whole entry): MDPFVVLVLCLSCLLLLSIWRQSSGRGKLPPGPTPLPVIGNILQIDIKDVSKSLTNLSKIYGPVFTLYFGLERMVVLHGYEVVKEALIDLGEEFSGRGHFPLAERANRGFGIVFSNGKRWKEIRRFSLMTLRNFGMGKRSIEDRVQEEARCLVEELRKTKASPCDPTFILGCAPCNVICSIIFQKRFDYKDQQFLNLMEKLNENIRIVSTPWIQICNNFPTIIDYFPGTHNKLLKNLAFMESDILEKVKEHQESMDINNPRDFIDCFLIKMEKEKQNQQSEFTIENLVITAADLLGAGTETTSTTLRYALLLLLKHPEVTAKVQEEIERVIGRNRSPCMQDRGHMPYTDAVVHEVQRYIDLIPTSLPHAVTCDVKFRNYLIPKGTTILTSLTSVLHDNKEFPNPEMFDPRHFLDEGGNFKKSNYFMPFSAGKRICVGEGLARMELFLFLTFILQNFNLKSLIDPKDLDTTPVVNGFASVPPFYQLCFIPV
structure (smiles),measurement,setting,value
Cc1cccc2c1c(=O)n(C[C@H]1CC[C@H](C(=O)O)CC1)c(=O)n2Cc1cccc(C(F)(F)F)c1C#N,Activity,[1],Toxic
same,Activity,[2],Toxic
same,Activity,[3],Non-Toxic
same,IC50,Cytochrome P450 1A2,> 100 µM
same,IC50,Cytochrome P450 2D6,> 100 µM
same,Activity,[4],Non-Toxic
same,bioavailability,[5],133%
same,clearance,[6],1.44 mL/min/kg
same,Activity,[7],Non-Toxic
same,Activity,[8],Toxic
same,Activity,[9],Toxic
same,Activity,[10],Toxic
same,clearance,[11],3.48 mL/min/kg
same,Activity,[12],Non-Toxic
same,IC50,Cytochrome P450 2C19,36 µM
same,ECmax,NCI-H292 [13],10 mg/kg
same,Activity,NCI-H292 [14],Active
same,Activity,[15],Toxic
same,half-life,[16],10.9 h
same,AUC/dose,[17],5831 ng·h/mL
same,Activity,[18],Toxic
same,IC50,Cytochrome P450 2C9,84 µM
same,Activity,[19],Non-Toxic
same,Activity,[20],Non-Toxic
same,AUC/dose,[21],6651 ng·h/mL
same,Activity,[22],8%
same,Activity,NCI-H292 [23],Active
same,IC50,[24],0.02 µM
same,Activity,[25],Non-Toxic
same,Activity,[26],Toxic
same,Vd,[27],2.12 L/kg
same,IC50,Cytochrome P450 3A4,> 100 µM
